Values quoted from earlier work, collected in publication PMC9669016, “First-in-human phase Ia study of the PI3Kα inhibitor CYH33 in patients with solid tumors” (Nature Communications, 2022).

Key:
[1] = parameters: method as in Investigator's Brochure (IB) 12; details: dogs, ref Investigator's Brochure (IB) 12, cited from earlier work
[2] = test system: CYP2C19; parameters: method as in Investigator's Brochure (IB) 12; details: up to 100 µM; ref Investigator's Brochure (IB) 12; cited from earlier work
[3] = test system: Caco-2 cells; parameters: method as in Investigator's Brochure (IB) 12; details: 2.00 - 10.0 µM; efflux transporters may be involved; ref Investigator's Brochure (IB) 12; cited from earlier work
[4] = test system: salmonella typhimurium; details: cited from earlier work

COC(=O)Nc1cc(C(F)(F)F)c(-c2nc(N3CCOCC3)c3cc(CN4CCN(S(C)(=O)=O)CC4)cn3n2)cn1 [CYH33, methyl (5-(6-((4-(methylsulfonyl)piperazin-1-yl)methyl)−4-morpholinopyrrolo[2,1-f][1,2,4]triazin-2-yl)−4-(trifluoromethyl)pyridin-2-yl)carbamate]
absolute bioavailability ([1]; 0.05 mg/kg): 70.9%
Vss, steady-state volume of distribution [1]: 1.86 L/kg
accumulation after continuous administration for 7 days [1]: not significant
elimination half-life [1]: 5.1 h
plasma clearance CL [1]: 6.75 mL/min/kg
inhibition of CYP2C19 [2]: did not inhibit
permeability [3]: moderately permeable
reverse mutation assay (Ames test) result [4]: negative
